{
  "source": "paper PMC8763382",
  "about": "“2-Sulfonylpyrimidines as Privileged Warheads for the Development of S. aureus Sortase A Inhibitors” (Frontiers in Molecular Biosciences, 2022)",
  "key": {"SrtA": {"system": "SrtA", "design": "method as in Jaudzems et al., 2020", "conditions": "after 16 h of incubation with 100 µM inhibitor; ref Jaudzems et al., 2020; cited from earlier work"}, "S. aureus SrtA [1]": {"biological_target": "T1, S. aureus SrtA (Staphylococcus aureus, UniProt Q2FV99)", "T1 construct": "His tag (inferred from IMAC on a HisTrap column); made in house; host or cells: E. coli BL21 Gold (DE3)", "T1 sequence (Q2FV99 60-206)": "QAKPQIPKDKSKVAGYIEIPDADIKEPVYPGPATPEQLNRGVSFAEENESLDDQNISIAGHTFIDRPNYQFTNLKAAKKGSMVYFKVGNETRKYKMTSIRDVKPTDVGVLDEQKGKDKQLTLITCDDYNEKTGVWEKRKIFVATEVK", "experiment": "fluorometric enzyme assay of SrtA transpeptidation (Abz-LPETG-Dap(Dnp)-OH substrate)", "format": "biochemical", "conditions": "for k inact: maximum inactivation rate; for k inact / KI (inactivation) / k 2nd: Tris pH 7.50, n. i. = <20% inhibition at 100 µM; for KI (inactivation): read-out: KI, dissociation constant of the reversible enzyme-inhibitor complex; for k 2nd: second-order rate of inhibition", "procedure": "To evaluate the inhibition potency of the parent sulfonylpyrimidine 4, this compound was tested by means of a fluorometric enzyme assay with recombinantly expressed S. aureus SrtA ([Schmohl et al., 2017b]) and Abz-LPETG-Dap (Dnp)-OH as substrate. […] To verify the irreversible mode of inhibition, we determined the maximum inactivation rate k inact, the dissociation constant of the reversible enzyme-inhibitor complex KI, and the second-order rate of inhibition k 2nd. For compound 4, a k inact = 0.00065 s^−1 was found, which is very low compared to other covalent SrtA inhibitors ([Chan et al., 2017]; [Barthels et al., 2020]; [Jaudzems et al., 2020]).\nInhibition assays of S. aureus SrtA transpeptidation reactions were performed as described previously ([Barthels et al., 2020]). Briefly, the recombinantly expressed SrtA (final concentration: 1 µM) was incubated in assay buffer (50 mM Tris, 150 mM NaCl, 5 mM CaCl2, pH 7.50) with 25 µM of the FRET-pair substrate Abz-LPETG-Dap (Dnp)-OH (Genscript, Piscataway, New Jersey) and 0.5 mM tetraglycine (Sigma Aldrich, St. Louis, Missouri). Inhibitors were added from DMSO stocks. Reactions were initiated by addition of SrtA and monitored for 30 min at 30°C in an Infinite M200 Pro plate reader with λex 320 nm/λem 430 nm (Tecan, Männedorf, Switzerland). Three technical replicates were carried out for each inhibitor in black flat-bottom 96-well plates (Greiner bio-one, Kremsmünster, Austria). The enzyme kinetics of irreversible SrtA inactivation were analyzed as described previously ([Barthels et al., 2020])."}, "[2]": {"biological_target": "T2, human cathepsin B (hCatB) (Homo sapiens, UniProt P07858)", "T2 construct": "purchased Calbiochem, Merck Millipore", "experiment": "protease selectivity panel, fluorometric assay cathepsin B", "format": "biochemical", "conditions": "100 µM inhibitor; read-out: CatB inhibition relative to the DMSO control", "procedure": "(§1) To investigate how these sulfonylpyrimidines affect the activity of other cysteine and serine proteases, a selectivity panel was constructed from a matrix of 6 diverse sulfonylpyrimidines and 6 different proteases. The compounds were assayed at a final compound concentration of 100 µM for the cysteine proteases human cathepsin B (hCatB), cathepsin L (hCatL), and T. brucei rhodesain (Rd). Furthermore, the serine proteases NS2B-NS3 from Zika virus (ZIKV), the homologous protease from Dengue virus (DENV), and the human protease urokinase plasminogen activator (uPA) were tested for their susceptibility.\n(§2) Fluorometric assays of the ZIKV/DENV NS2B/NS3 protease were performed as described previously ([Maus et al., 2021]). The assay was carried out in triplicates at 25°C in assay buffer (50 mM Tris, pH 9.0, 20% glycerol (v/v), and 1 mM CHAPS). 100 µM Boc-Gly-Arg-Arg-AMC (Bachem, Bubendorf, Switzerland) was used as a substrate. Fluorometric assays for cathepsin B, cathepsin L, and rhodesain (Calbiochem, Merck Millipore, Burlington, Massachusetts) were performed as described previously ([Klein et al., 2020a]). Cbz-Phe-Arg-AMC (Bachem, Bubendorf, Switzerland) was used as substrate (100 μM for cathepsin B, 6.5 μM for cathepsin L, and 10 µM for rhodesain). Fluorometric assays for urokinase plasminogen activator were performed as described previously ([Angelini et al., 2012]). 240 µM Cbz-Gly-Arg-Arg-AMC (Bachem, Bubendorf, Switzerland) was used as a substrate."}, "[3]": {"design": "method as in Bauer et al.", "conditions": "ref Bauer et al.; cited from earlier work"}, "cathepsin L (hCatL)": {"biological_target": "T3, cathepsin L (hCatL) (Homo sapiens, UniProt P07711)", "T3 construct": "purchased Calbiochem, Merck Millipore", "T3 sequence (P07711 114-333)": "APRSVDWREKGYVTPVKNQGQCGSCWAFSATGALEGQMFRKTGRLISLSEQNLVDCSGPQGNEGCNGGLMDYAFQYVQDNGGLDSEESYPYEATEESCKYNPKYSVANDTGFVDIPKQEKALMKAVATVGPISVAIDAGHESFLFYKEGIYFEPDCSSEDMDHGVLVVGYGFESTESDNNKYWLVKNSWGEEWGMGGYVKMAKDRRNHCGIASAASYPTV", "experiment": "protease selectivity panel, fluorometric assay cathepsin L", "format": "biochemical", "conditions": "100 µM inhibitor; read-out: CatL inhibition relative to the DMSO control", "procedure": "as §1, §2"}, "[4]": {"biological_target": "T4, NS2B-NS3 from Zika virus (ZIKV) (Zika virus, UniProt Q32ZE1)", "T4 construct": "The ZIKV NS2B/NS3 protease is a serine protease and contains two non-catalytic cysteine residues", "T4 sequence (Q32ZE1 1499-1676)": "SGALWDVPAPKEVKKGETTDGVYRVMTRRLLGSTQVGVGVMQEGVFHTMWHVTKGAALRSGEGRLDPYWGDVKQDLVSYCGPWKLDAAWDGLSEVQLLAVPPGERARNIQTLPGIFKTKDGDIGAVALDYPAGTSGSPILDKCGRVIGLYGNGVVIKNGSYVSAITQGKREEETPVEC", "T4 sequence (Q32ZE1 1421-1460)": "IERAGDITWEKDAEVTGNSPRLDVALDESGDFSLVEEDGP", "experiment": "protease selectivity panel, fluorometric assay ZIKV NS2B/NS3 protease", "format": "biochemical", "conditions": "100 µM inhibitor; read-out: ZIKV inhibition relative to the DMSO control", "procedure": "as §1, §2"}, "[5]": {"experiment": "cysteine reactivity assay (competitive fluorescence assay with probe 8)", "format": "physicochemical", "description": "In order to study the kinetics of sulfonylpyrimidines reacting with free cysteine in solution, a strategy for a competitive fluorescence-based assay was adapted from previous works ([Epps and Taylor, 2001]; [Sameshima et al., 2017]). […] The reaction of probe 8 with cysteine liberates 4-methylumbelliferone as a fluorometrically detectable product (Figure 7A), and thus, the fluorescence increase can be described by the second-order rate constant k probe (Equation 1).\nUpon the addition of competitive and irreversible cysteine modifiers such as sulfonylpyrimidines, the fluorescence increase of the probe reaction was hyperbolically attenuated (Figure 7B). According to the conceptual deduction described previously ([Epps and Taylor, 2001]; [Sameshima et al., 2017]), the experimental fluorescence curves can be analyzed by nonlinear regression as first-order reaction progress curves (Equation 2). The parameter k obs describes the curvature corresponding to the sum of the competing kinetics (Equation 3). Under the assumptions that 1) the competitive reaction between sulfonylpyrimidines vs. probe with cysteine is started by simultaneous addition, and 2) sulfonylpyrimidines are added at a much higher concentration than cysteine (5 µM) and the probe (5 µM), the k obs values depend substantially on the k chem value. The compound-specific second-order inactivation parameter k chem can be determined by linear regression from the k obs values of the dilution series (Equation 4). d[FL]/dt=kprobe[Cys][probe] (1) FL=[Cys]total⋅kprobe [probe]/kprobe [probe] + kchem [sulfonylpyrimidine](1−e^−kobs⋅t) (2) kobs=kchem [sulfonylpyrimidine]+kprobe [probe] (3) kchem=kobs/[sulfonylpyrimidine] (4)\nKinetic characterization of the reaction between sulfonylpyrimidines and cysteine was performed in degassed phosphate buffer (1×PBS, pH 7.5) or individual cases in bicarbonate buffer (20 mM NaHCO3, 100 mM NaCl, pH 7.5). Three technical replicates were carried out for each sulfonylpyrimidine in black flat-bottom 96-well plates. For this purpose, 50 µL buffered solution (including 5% (v/v) DMSO) of the respective sulfonylpyrimidine derivative (final: 250–3 µM) and the cysteine reactive probe 8 (final: 5 µM) were premixed. Reactions were initiated by the addition of 50 µL cysteine (final: 5 µM), dissolved in the respective buffer, and monitored for 30 min at 30°C in an Infinite M200 Pro plate reader with λex 380 nm/λem 460 nm. To calculate k obs and k chem values, fluorescence curves were fitted using the same non-linear regression as for in vitro inhibition of SrtA ([Barthels et al., 2020])."}, "T. brucei rhodesain (Rd)": {"biological_target": "T5, T. brucei rhodesain (Rd) (Trypanosoma brucei rhodesiense, UniProt Q95PM0)", "T5 construct": "purchased Calbiochem, Merck Millipore", "T5 sequence (Q95PM0 entry or part of it)": "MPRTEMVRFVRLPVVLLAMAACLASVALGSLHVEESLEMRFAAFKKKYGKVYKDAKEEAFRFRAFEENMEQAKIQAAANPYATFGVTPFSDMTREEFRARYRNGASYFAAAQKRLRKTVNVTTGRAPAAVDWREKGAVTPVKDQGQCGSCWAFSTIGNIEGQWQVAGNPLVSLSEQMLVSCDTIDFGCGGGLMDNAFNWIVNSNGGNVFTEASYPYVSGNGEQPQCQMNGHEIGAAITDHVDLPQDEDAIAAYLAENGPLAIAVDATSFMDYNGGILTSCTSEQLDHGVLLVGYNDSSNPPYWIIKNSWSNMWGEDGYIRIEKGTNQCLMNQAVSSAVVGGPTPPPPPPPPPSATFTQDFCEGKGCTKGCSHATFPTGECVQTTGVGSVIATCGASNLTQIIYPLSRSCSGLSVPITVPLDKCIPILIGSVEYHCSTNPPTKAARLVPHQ", "experiment": "protease selectivity panel, fluorometric assay rhodesain", "format": "biochemical", "conditions": "100 µM inhibitor; n. i. = no inhibition at 100 µM; read-out: Rd inhibition relative to the DMSO control", "procedure": "as §1, §2"}, "S. aureus SrtA [6]": {"biological_target": "T1, S. aureus SrtA", "experiment": "MALDI-TOF-MS of SrtA treated with inhibitor", "conditions": "SrtA 10 µM, inhibitor 100 µM, 1 h room temperature", "procedure": "By using MALDI-TOF mass spectrometry, we aimed to determine the mode of inhibitory action in an enzymatic context. For the native SrtA, we found a protein mass at m/z = 17,806.\nAn S. aureus SrtA stock solution was diluted in 100 μL assay buffer (50 mM Tris, 150 mM NaCl, 5 mM CaCl2, pH 7.50) to a final concentration of 10 µM. Compound 7a was dissolved in DMSO and added to SrtA at a final concentration of 100 μM. The protein samples were allowed to react for 1 h at room temperature and subsequently, these were desalted using Zeba^TM Spin desalting columns (7 kDa MWCO, 0.5 ml; Thermo Scientific) according to the manufacturer’s instructions. For MALDI sample preparation, the desalted solution was mixed 1:1 with a matrix combination of equal amounts α-cyano-4-hydroxycinnamic acid (20 mg/ml dissolved in 70% acetonitrile and 30% of formic acid in water at a concentration of 5%) and 2,5-dihydroxybenzoic acid (20 mg/ml dissolved in 70% acetonitrile and 30% of trifluoroacetic acid in water at a concentration of 0.1%). The resulting mixture was allowed to dry slowly on the MALDI target prior to introduction into the mass spectrometer. […] The acceleration voltage was set to 20 kV and the mass spectra were recorded in positive ion linear mode. […] Samples were measured at a laser power of 60% with random walk ionization across the sample spot."}, "[7]": {"experiment": "in-solution reaction with free cysteine (ESI-MS / LC/MS)", "format": "physicochemical", "conditions": "compound 100 µM, cysteine 100 µM, phosphate buffered solution pH 7.5", "quoted_text": "Thus, we determined the point of nucleophilic thiol attack by means of ESI mass spectrometry between the reaction of compound 7a and cysteine in phosphate buffered solution at pH 7.5.\nFurthermore, the influence of different solvents on the reaction of sulfonylpyrimidines with thiols in solution was investigated.\nTo a solution of 100 µM cysteine in phosphate-buffered saline (1×, pH 7.5), compound 5a or 7a (100 μM, 5% DMSO) was added and incubated for 10 min at room temperature. The negative labeling control was performed by mock treatment with DMSO. Samples were analyzed by LC/MS using an Agilent 1100 series HPLC system with an Agilent Poroshell 120 EC-C18 column (150 × 2.10 mm 4 μm; mobile phase: ACN/H2O 45:55 + 0.1% formic acid; flow rate: 0.4 ml/min) and electron spray ionization with the Agilent 1100 series LC/MSD Trap in positive ionization mode."}, "[8]": {"conditions": "phosphate buffer (1×PBS) pH 7.5"}},
  "note": "Where “and” joins values, the source holds several entries; their conditions need not be identical. Equal values may be shown once.",
  "data": [
    {"smiles": "CS(=O)(=O)c1ncc(Cl)c(C(=O)Nc2ccccc2Cc2ccccc2)n1", "note": "[Compound 4]", "values": [
      {"measurement": "SrtA inhibition", "setting": "SrtA", "value": 97, "unit": "%"},
      {"measurement": "k inact", "setting": "S. aureus SrtA [1]", "value": "0.00065 s⁻¹ and 0.0006 s⁻¹ and 0.00065 ± 0.00007 s⁻¹"},
      {"measurement": "KI (inactivation)", "setting": "S. aureus SrtA [1]", "value": "47.1 ± 15.7", "unit": "µM"},
      {"measurement": "k 2nd", "setting": "S. aureus SrtA [1]", "value": "870 M⁻¹ min⁻¹ and 870 ± 170 M⁻¹ min⁻¹"}
    ]},
    {"smiles": "CS(=O)(=O)c1ncc(Cl)c(C(=O)O)n1", "note": "[Compound 5c]", "values": [
      {"measurement": "inhibition at 100 µM", "setting": "[2]", "value": 5.8, "unit": "%"},
      {"measurement": "k chem vs. glutathione", "setting": "[3]", "value": 82, "unit": "M^−1min-^1"},
      {"measurement": "inhibition at 100 µM", "setting": "cathepsin L (hCatL)", "value": 6.6, "unit": "%"},
      {"measurement": "inhibition at 100 µM", "setting": "[4]", "value": 7.7, "unit": "%"},
      {"measurement": "Cysteine k chem", "setting": "[5]; bicarbonate buffered solution pH 7.5", "value": "0.365 ± 0.0212", "unit": "M⁻¹ s⁻¹"},
      {"measurement": "Cysteine k chem", "setting": "[5]; [8]", "value": "1.05 M⁻¹ s⁻¹ and 1.05 ± 0.0335 M⁻¹ s⁻¹"},
      {"measurement": "inhibition at 100 µM", "setting": "T. brucei rhodesain (Rd)", "value": 20, "unit": "%"},
      {"measurement": "SrtA inhibition (in words)", "setting": "S. aureus SrtA [1]; final inhibitor concentration of 300 µM", "value": "no SrtA inhibition"},
      {"measurement": "inhibition at 100 µM", "setting": "S. aureus SrtA [1]; read-out: SrtA inhibition relative to the DMSO control", "value": 19.6, "unit": "%"}
    ]},
    {"smiles": "CS(=O)(=O)c1ncc(Br)c(C(=O)Nc2cccc(C(=O)c3ccccc3)c2)n1", "note": "[Compound 7a]", "values": [
      {"measurement": "Cysteine k chem", "setting": "[5]; [8]", "value": "1.748 ± 0.375", "unit": "M⁻¹ s⁻¹"},
      {"measurement": "covalent modification of SrtA (in words)", "setting": "S. aureus SrtA [6]", "value": "quantitative conversion"},
      {"measurement": "time to quantitative reaction with cysteine", "setting": "[7]", "value": "less than 10 min"},
      {"measurement": "S. I. (k 2nd/k chem)", "setting": "S. aureus SrtA [1]; SrtA k 2nd over cysteine k chem", "value": 268},
      {"measurement": "k inact", "setting": "S. aureus SrtA [1]", "value": "0.01493 ± 0.00132", "unit": "s⁻¹"},
      {"measurement": "KI (inactivation)", "setting": "S. aureus SrtA [1]", "value": "32 ± 5.07", "unit": "µM"},
      {"measurement": "k 2nd", "setting": "S. aureus SrtA [1]", "value": "28,185 ± 2,117 M^−1min^−1"}
    ]}
  ]
}
